Entries after “also recorded” stand apart in the source; their conditions may differ.
Legend:
Type in all cases: in vivo, human
recurrent glioblastoma [1] = assay: L19-TNFα treatment of patients with recurrent glioblastoma (tumor perfusion, necrosis, disease status)
Procedure: Three patients with recurrent glioblastoma were treated with L19-TNFα at a dose level of 10 μg/kg. […] This is surprising considering that the Progression Free Survival (PFS) for recurrent glioblastoma is 1.5 months.

recurrent glioblastoma [2] = assay: Immunohistochemistry of tumor tissue before and after treatment with L19-TNFα; conditions: re-section tissue after treatment vs tissue from first surgery, patient with progressive disease
[3] = test system: glioblastoma (WHO grade IV) at first recurrence; assay: L19-TNF plus lomustine in a patient with glioblastoma at first recurrence, contrast enhanced MRI; conditions: one patient; 13 μg/kg L19-TNF iv on Days 1, 3, 5, 22, 24, 26 with 90 mg/m2 lomustine on Day 1; 40 days after baseline image
Procedure: This example describes the effect of a combination therapy on a patient with recurrent glioblastoma after chemoradiotherapy followed by temozolomide maintenance therapy.
A patient with glioblastoma (WHO grade IV) at first recurrence, received 90 mg/m2 lomustine (CCNU) on Day 1. Additionally, this patient received 13 μg/kg L19-TNF, by iv infusion, on Days 1, 3, 5, 22, 24 and 26.
The patient had been pretreated for newly diagnosed glioblastoma with resection and chemoradiotherapy followed by temozolomide maintenance therapy.
Contrast enhanced MRI was performed initially, before receiving the lomustine and L19-TNF (baseline image; see FIG. 3A) and 40 days after baseline image (FIG. 3B).

[4] = three patients, 10 μg/kg, twenty-four hours after the infusion

L19-TNFα
disease status, one patient (recurrent glioblastoma [1]; 10 μg/kg, one of three patients, after three months): progressive disease
disease status, two patients (recurrent glioblastoma [1]; 10 μg/kg, two of three patients, at six months after treatment, with increasing area of necrosis in the tumor region): stable disease
overall tumor perfusion (recurrent glioblastoma [1]; [4]): decrease
tumor necrosis (recurrent glioblastoma [1]; [4]): emerging tumor necrosis
glioma lesions (size) (recurrent glioblastoma [1]; two patients, FIG. 1A, after two and six cycles): gradually shrink
necrotic core of the lesions (recurrent glioblastoma [1]; two patients, FIG. 1A, before vs after treatment): expanding necrotic core
cleaved caspase-3 levels in tumor (recurrent glioblastoma [2]): increase; also recorded: increased levels
tumor-infiltrating CD4 T-cells (recurrent glioblastoma [2]): significant increase
tumor-infiltrating CD8 T-cells (recurrent glioblastoma [2]): significant increase
tumour size on contrast enhanced MRI [3]: substantially reduced

Source: patent US12377161B2, “TNF-alpha immunoconjugate therapy for the treatment of brain tumors” (priority 2020, dated 2025)
